Test: xn = mol fraction of the nth substance listed, in the solute-free solvent

CC(=O)Nc1ccc(OC(=O)c2ccccc2OC(C)=O)cc1 + CN1CCCC1=O + O
solubility (g/100 g solution)
Settings	278.15 K	283.15 K	288.15 K	293.15 K	298.15 K	303.15 K	308.15 K	313.15 K	318.15 K
x2 = 0.0198	0.0101	0.0143	0.02	0.0278	0.0388	0.0522	0.0688	0.0923	0.122
x2 = 0.04347	0.0672	0.0901	0.121	0.159	0.209	0.268	0.349	0.446	0.569
x2 = 0.07228	0.275	0.355	0.448	0.581	0.725	0.903	1.13	1.39	1.7
x2 = 0.1081	0.8	0.998	1.25	1.51	1.85	2.22	2.69	3.19	3.81
x2 = 0.1538	1.62	1.95	2.37	2.85	3.4	4.01	4.67	5.48	6.35
x2 = 0.2143	2.87	3.37	3.94	4.63	5.38	6.15	7.12	8.13	9.18
x2 = 0.2979	4.29	4.95	5.76	6.59	7.51	8.56	9.7	10.8	12.1
x2 = 0.421	5.72	6.53	7.43	8.43	9.49	10.7	11.8	13.2	14.5
x2 = 0.6207	6.55	7.48	8.44	9.55	10.7	11.9	13.3	14.7	16.1

O=[N+]([O-])c1cc[nH]n1 + CCO + O
solubility (g/100 g solution)
Settings	283.15 K	288.15 K	293.15 K	298.15 K	303.15 K	308.15 K	313.15 K	318.15 K	323.15 K
x2 = 0.04165	0.265	0.347	0.44	0.528	0.709	0.854	1.16	1.49	1.89
x2 = 0.08908	0.319	0.385	0.478	0.581	0.718	0.87	1.15	1.44	1.83
x2 = 0.1436	0.409	0.521	0.689	0.942	1.16	1.49	1.89	2.41	3.08
x2 = 0.2068	0.482	0.6	0.75	0.956	1.18	1.48	1.87	2.34	2.97
x2 = 0.2812	0.53	0.639	0.777	0.962	1.16	1.46	1.8	2.24	2.82
x2 = 0.3698	1	1.2	1.45	1.71	2.08	2.5	3.05	3.86	4.83
x2 = 0.4772	1.69	1.98	2.32	2.72	3.26	3.87	4.68	5.83	7.1
x2 = 0.6101	2.68	3.06	3.52	4.09	4.83	5.64	6.66	8.11	9.68
x2 = 0.7788	3.98	4.51	5.09	5.8	6.58	7.79	9.11	10.7	12.4
